# Legend:
# [1] = tested on: H3 peptide (1–17) (H3K9me0); experiment: ITC, H3 (H3K9me0) peptide (1-17) titrated into UHRF1 proteins; format: binding
# Procedure: (§1) For competition ITC experiments: the indicated proteins were pre-incubated with competitive peptide, protein or hm-DNA (at 1:2 molar ratio if not specified) for 10 min followed by ITC measurements as described above. Proteins, DNA and peptides were prepared within ITC buffer containing 10 mM HEPES, pH 8.0, 100 mM NaCl. The data were fitted by software Origin 7.0. All ITC results were summarized in Supplementary Table 2 and raw data were shown in Supplementary Fig. 9.
# [2] = molecular target: PHD (residues 307–366) of UHRF1; experiment: ITC, PHD titrated into UHRF1 domains; format: binding, human; conditions: 18 °C, PHD in syringe, named protein in cell, 10 mM HEPES pH 8.0, 100 mM NaCl
# Procedure: as §1
# hm-DNA (12 bp) = experiment: ITC, hm-DNA titrated into UHRF1 domains; format: binding; conditions: 18 °C, 12-bp hm-DNA in syringe, named protein in cell, 10 mM HEPES pH 8.0, 100 mM NaCl
# Procedure: as §1
# RFTS^DNMT1 = experiment: ITC, RFTS of DNMT1 with SRA or SRA-Spacer; format: binding; conditions: 18 °C, RFTS^DNMT1 with named protein, 10 mM HEPES pH 8.0, 100 mM NaCl
# Procedure: as §1
# FAM-12bp-HM-DNA = experiment: Fluorescence polarization, 12-bp FAM-hm-DNA; format: binding; conditions: FP
# Procedure: A 6-carboxy-fluorescein (FAM)-labelled primer, 5′-CCATGCGCTGAC-3′, was annealed to a primer 5′-GTCAGXGCATGG-3′ (X=5-methyldeoxycytosine). The hemi-methylated double-strand DNA was used in both electrophoretic mobility-shift assay and FP assays. […] The samples were subjected to a 10% polyacrylamide gel electrophoresis and run in 0.5 × Tris-borate-EDTA buffer at 100 V for 1 h at 4 °C. The results were visualized on Tanon-5200 Chemiluminescent Imaging System (Tanon Science & Technology Co., Ltd).
# (§2) FP measurements were performed at 25 °C on Synergy 4 Microplate Reader (BioTek). The 16-bp and 20-bp FAM-labelled hm-DNA (lower strand: 5′-GTGTCAGXGCATGGCC-3′ and 5′-CCGTGTCAGXGCATGGCCAT-3′, respectively. X=5-methyldeoxycytosine) were used in the FP experiment to test the effect of DNA length on the protein/DNA interaction. All experiments were performed in triplicate. The curves were fitted by GraphPad Prism 5. For salt concentration-dependent FP experiments, the reaction buffer contains 50 mM or 150 mM NaCl, respectively.
# FAM-16bp-HM-DNA = experiment: Fluorescence polarization, 16-bp FAM-hm-DNA; format: binding; conditions: FP, DNA length series
# Procedure: as §2
# FAM-20bp-HM-DNA = experiment: Fluorescence polarization, 20-bp FAM-hm-DNA; format: binding; conditions: FP, DNA length series
# Procedure: as §2
# [3] = molecular target: T1, TTD (residues 134–285) of UHRF1 (Homo sapiens, UniProt Q96T88); experiment: ITC, TTD titrated into Spacer variants and other UHRF1 fragments; format: binding; conditions: TTD in syringe
# T1 construct: TTD (residues 134–285); GST (N, cleaved yes); made in house; host or cells: E. coli BL21 (DE3)
# T1 sequence (Q96T88 134-285): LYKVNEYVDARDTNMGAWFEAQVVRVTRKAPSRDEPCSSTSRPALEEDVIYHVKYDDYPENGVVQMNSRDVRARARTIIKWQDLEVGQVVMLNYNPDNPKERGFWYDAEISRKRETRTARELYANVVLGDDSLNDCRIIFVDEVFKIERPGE
# Procedure: as §1
# H3K9me3 peptide (1–17) = experiment: ITC, H3K9me3 peptide (1-17) titrated into UHRF1 proteins; format: binding; conditions: ITC, 18 °C; named protein 0.05 mM in cell, H3K9me3 (1-17) 0.5 mM in syringe; 10 mM HEPES pH 8.0, 100 mM NaCl; read-out: KD
# Procedure: as §1
# [4] = tested on: DAPI foci (pericentromeric heterochromatin) in NIH3T3 cells; experiment: Subcellular localization of GFP-tagged UHRF1 in NIH3T3 cells; format: cell-based; conditions: GFP-tagged protein transiently overexpressed in NIH3T3 cells, 36 h after transfection; at least 100 cells counted; repeated three times
# Procedure: NIH3T3 cells were obtained from the Shanghai Institute of Biochemistry and Cell Biology. Wild type and mutants of UHRF1 were sub-cloned into pEGFP-C1 vector. Transient transfections of NIH3T3 cells were carried out using Lipofectamine 2000 (Invitrogen). The NIH3T3 cells were grown on glass coverslips and harvested in 36 h after transfection. The images were acquired and examined as previously described. Briefly, cells were fixed with 4% paraformaldehyde for 25 min, then washed with PBS three times. Coverslips were mounted with Antifade reagent containing DAPI (Molecular Probes) on slides and examined with a confocal microscopy.
# [5] = 25 °C, 20 min, 20 mM HEPES pH 7.5, 175 mM NaCl, 8% glycerol, 1 mM DTT, triplicate, Fig. 5b and Supplementary Table 4
substance,measurement,setting,value
"PHD: plant homeodomain of human UHRF1 (residues 307–366) (DDVNRLCRVCACHLCGGRQDPDKQLMCDECDMAFHIYCLDPPLSSVPSEDEWYCPECRND; UniProt Q96T88 307-366, looked up, fragment)",fold higher binding affinity to H3K9me0 peptide than full-length UHRF1,[1]; ITC KD ratio,~34 fold
SRA: SET-and-RING-associated domain of human UHRF1 (residues 414–617),Kd,[2],26.7 ± 12.1 µM
same,Kd,hm-DNA (12 bp),25.1 µM
same,KD,RFTS^DNMT1,no detectable interaction
same,Kd,"FAM-12bp-HM-DNA; 12-bp hm-DNA, 50 mM NaCl",0.15 ± 0.018 µM
same,Kd,"FAM-12bp-HM-DNA; 12-bp hm-DNA, 150 mM NaCl",5.92 ± 1.32 µM
same,Kd,FAM-12bp-HM-DNA; [5],9.23 ± 3.07 µM
same,Kd,"FAM-12bp-HM-DNA; DNA length series, Supplementary Table 5, 12-bp hm-DNA",12.8 ± 2.07 µM
same,Kd,FAM-16bp-HM-DNA,29.4 ± 9.74 µM
same,Kd,FAM-20bp-HM-DNA,9.59 ± 4.78 µM
"Spacer587-641: Spacer fragment, residues 587–641 (PGPWTKEGKDRIKKLGLTMQYPEGYLEALANREREKENSKREEEEQQEGGFASPR; left off: GST, end not stated, cleaved)",KD,"[3]; ITC, 18 °C, named protein or peptide in cell, 10 mM HEPES pH 8.0, 100 mM NaCl",no detectable interaction
"Spacer642-674: Spacer fragment, residues 642–674 (TGKGKWKRKSAGGGPSRAGSPRRTSKKTKVEPY; left off: GST, end not stated, cleaved)",N,[3]; ITC stoichiometry,1.09±0.00765
same,ΔH,[3]; ITC,-11.3 kcal/mol
same,ΔS,[3]; ITC,-11.2 cal/mol/deg
UHRF1: recombinant human UHRF1 (residues 1–793); GFP-tagged in the cell assay,Kd,H3K9me3 peptide (1–17),4.61 ± 0.47 µM
same,Kd,"[1]; ITC, 18 °C, named protein 0.05 mM in cell, H3 (1-17) 0.5 mM in syringe, 10 mM HEPES pH 8.0, 100 mM NaCl",26 ± 7.01 µM
same,Kd,FAM-12bp-HM-DNA; [5],0.35 µM
same,percentage of cells showing co-localization with DAPI foci,[4],74.6%

# — publication PMC4822050, “Hemi-methylated DNA opens a closed conformation of UHRF1 to facilitate its histone recognition” (Nature Communications, 2016)
